{"source": "BindingDB's records for PubMed 32066009", "about": "(Hefei University of Technology, 2020)", "key": {"[1]": {"molecular_target": "Prothrombin (Homo sapiens, UniProt P00734)", "experiment": "Inhibition of thrombin (unknown origin)"}, "[2]": {"molecular_target": "Coagulation factor X (Homo sapiens, UniProt P00742)", "sequence (P00742 41-179 limits assumed)": "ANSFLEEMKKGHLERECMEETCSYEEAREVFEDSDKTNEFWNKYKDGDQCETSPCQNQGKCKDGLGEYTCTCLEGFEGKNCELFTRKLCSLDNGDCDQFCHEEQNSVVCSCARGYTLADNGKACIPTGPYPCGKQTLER", "sequence (P00742 235-488 limits assumed)": "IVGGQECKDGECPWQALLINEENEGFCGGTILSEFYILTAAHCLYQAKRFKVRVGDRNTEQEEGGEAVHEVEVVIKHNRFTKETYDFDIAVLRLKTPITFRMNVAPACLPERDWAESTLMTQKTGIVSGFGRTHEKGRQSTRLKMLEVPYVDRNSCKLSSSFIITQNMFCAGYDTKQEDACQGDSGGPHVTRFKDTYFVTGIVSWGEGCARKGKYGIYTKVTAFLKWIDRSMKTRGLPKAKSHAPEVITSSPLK", "experiment": "Inhibition of human fXA by fluorescence based analysis"}, "[3]": {"molecular_target": "T1, Coagulation factor XII (Homo sapiens, UniProt P00748)", "T1 sequence (P00748 whole entry)": "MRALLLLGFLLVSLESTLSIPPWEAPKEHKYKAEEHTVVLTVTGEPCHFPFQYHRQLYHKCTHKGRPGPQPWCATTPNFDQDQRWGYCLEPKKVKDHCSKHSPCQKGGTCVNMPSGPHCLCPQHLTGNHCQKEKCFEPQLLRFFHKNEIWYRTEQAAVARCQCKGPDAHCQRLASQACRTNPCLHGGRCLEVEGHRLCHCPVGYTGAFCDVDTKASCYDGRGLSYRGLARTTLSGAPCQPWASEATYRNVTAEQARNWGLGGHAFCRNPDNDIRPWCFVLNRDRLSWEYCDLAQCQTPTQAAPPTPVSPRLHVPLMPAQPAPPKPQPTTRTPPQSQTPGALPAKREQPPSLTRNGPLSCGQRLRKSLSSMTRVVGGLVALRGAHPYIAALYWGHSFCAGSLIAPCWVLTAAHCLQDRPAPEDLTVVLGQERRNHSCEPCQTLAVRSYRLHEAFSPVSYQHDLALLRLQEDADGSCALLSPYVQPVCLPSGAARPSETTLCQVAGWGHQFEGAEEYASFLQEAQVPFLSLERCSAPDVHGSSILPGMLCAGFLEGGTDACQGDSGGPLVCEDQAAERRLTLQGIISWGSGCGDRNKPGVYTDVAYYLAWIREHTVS", "experiment": "Inhibition of human fXIIA by fluorescence based analysis"}}}
{"smiles": "NCC1CCC(C(=O)N[C@@H](Cc2ccccc2)C(=O)Nc2ccc(CC(=O)O)cc2)CC1", "note": "(some centres undefined)", "values": [{"measurement": "IC50", "setting": "[1]", "value": "> 1000", "unit": "µM"}]}
{"smiles": "CC(=O)c1ccc(NC(=O)[C@H](Cc2ccccc2)NC(=O)C2CCC(CN)CC2)cc1", "note": "(some centres undefined)", "values": [{"measurement": "IC50", "setting": "[1]", "value": "> 1000", "unit": "µM"}]}
{"smiles": "CCOc1ccc(C[C@@H](NC(=O)c2ccccc2)C(=O)N[C@@H](Cc2ccccc2)C(=O)NCc2ccc(CN)cc2)cc1", "note": "[US9234000, 3]", "values": [{"measurement": "IC50", "setting": "[2]", "value": "> 10", "unit": "µM"}, {"measurement": "IC50", "setting": "[3]", "value": "> 10", "unit": "µM"}]}
